# Entries after “also recorded” stand apart in the source; their conditions may differ.
# What was measured:
# [1] = tested on: cultured neurons; assay: LIVE/DEAD viability assay, kainic acid (KA)-induced cell death model; type: cell-based, mouse; conditions: sodium salt
# Source text: Epileptic activity may induce cell death both in epileptic patients and animal models. Chen et al., “Differential roles of NR2A- and NR2B-containing NMDA receptors in activity-dependent brain-derived neurotrophic factor gene regulation and limbic epileptogenesis” The Journal Of Neuroscience: the official journal of the Society for Neuroscience 27:542-552 (2007); and Naseer et al., “Maternal epileptic seizure induced by pentylenetetrazol: apoptotic neurodegeneration and decreased GABAB1 receptor expression in prenatal rat brain” Molecular Brain 2:20 (2009). […] Wu et al., “Protective effect of resveratrol against kainate-induced temporal lobe epilepsy in rats” Neurochemical Research 34:1393-1400 (2009). In a control group, most neurons appeared to be healthy in morphology and were stained by calcein (green, live) but not ethidium homodimer-1 (EthD-1, red, death). See, FIG. 1J, left. […]
# A LIVE/DEAD® Viability/Cytotoxicity Assay Kit (L3224, Life Technologies) containing ethidium homodimer-1 and calcein-AM was used to examine cell viability. Ethidium homodimer-1 binds to cellular DNA and typically labels dead cells in red fluorescence, while Calcein-AM can be cleaved by esterases in live cells to give strong green fluorescence. […] Cell survival and death rate were measured by quantifying the percentage of green and red fluorescent cells, respectively. […]
# [2] = tested on: Cl− channels; assay: Cl− current recording in cultured cortical neurons; type: cell-based, mouse; conditions: 10 mM NaGcA
# [3] = tested on: hippocampal slices; assay: Field potential recording of epileptiform activity in hippocampal slices (CA3 pyramidal layer); type: cell-based, mouse
# [4] = tested on: KA induced neonatal seizure; assay: KA-induced neonatal seizure, in vivo EEG recording; design: species or system rat
# Method: For example, neonatal rats were administered gluconate to determine the effect on in vivo epileptic seizures in neonatal and adult animals. […] FIGS. 14A and 14B; Dzhala et al., “NKCC1 transporter facilitates seizures in the developing brain” Nature Medicine 11:1205-1213 (2005). […] FIGS. 14C and 14D.
# To test the in vivo anti-epilepsy effects of gluconate in neonatal and adult rodents, P8-12 Sprague-Dawley rats or 2-month old male C57BL/6 mice were deeply anesthetized with pentobarbital sodium (50 mg/kg for neonatal rat and 100 mg/kg for adult mice, intraperitoneal injection). Two stainless steel screws (1 mm in diameter) were inserted in the skull above the cortex as EEG recording electrodes, one ground electrode as well as one reference electrode were located +1.8 mm anterior to bregma, ±0.5 mm lateral to the midline, and 1 mm below the cortical surface. All electrodes were attached to a micro-connector and fixed onto the skull with dental cement. After surgery, neonatal rats were returned to their mothers and allowed to recover for 2 days prior to subsequent EEG recording. The adult mice were single housed in order to prevent damage of the implanted electrodes and allowed to recover at least 5 days before EEG recording.
# The baseline of EEG was recorded for 0.5-1 hr to allow the animal to adapt to the environment. Kainic acid (2 mg/kg) was administered intraperitoneally (i.p.) for neonatal epilepsy induction. D-gluconic acid sodium salt (2 g/kg) or 0.9% saline was injected i.p. 10 min after KA administration. Pentylenetetrazol (PTZ) was administered intraperitoneally for inducing a stable epileptic burst activity in adult mice, and D-gluconic acid sodium salt (1 g/kg and 2 g/kg) or 0.9% saline was injected i.p. 10 min before PTZ administration. Epileptiform activity was monitored for 1 hr after PTZ injection. Qian et al., “Epileptiform response of CA1 neurones to convulsant stimulation by cyclothiazide, kainic acid and pentylenetetrazol in anaesthetized rats” Seizure 20:312-319 (2011). After the experiment, animals were injected with diazepam to protect the animals from recurrent epilepsy.
# Power was calculated in 1-min time windows by integrating the power of dominant frequency bands from 1 to 100 Hz (EEG band).
# [5] = tested on: GABA-induced neuronal activity; assay: Cell-attached recording of spike firing elicited by isoguvacine in CA3 pyramidal neurons; type: cell-based, mouse; conditions: P8-9, isoguvacine 10 μM, 30 s
# Method: Besides EGABA, the effects of different drugs on GABA-induced neuronal activity during epileptogenesis were investigated in neonatal animals (e.g., P8-9). To accurately measure GABA-induced neuronal activity, cell-attached recordings monitored spike firing elicited by local application of the GABAA-R agonist isoguvacine (10 μM, 30 s). Tyzio et al., “Maternal oxytocin triggers a transient inhibitory switch in GABA signaling in the fetal brain during delivery” Science 314:1788-1792 (2006). […] FIG. 16K, control, (n=32). […] FIG. 16K, 0 Mg^2+ (n=19). […] FIG. 16K; 0 Mg^2++Bum (n=19); and 0 Mg^2++VU (n=21). […] FIG. 16K; 0 Mg^2++NaGcA (n=18).
# [6] = 0 Mg2+ aCSF, WT slices P8-12 pre-treated with 20 mM NaGcA
smiles,measurement,setting,value
"O=C([O-])[C@H](O)[C@@H](O)[C@H](O)[C@H](O)CO.[Na+] [NaGcA, D-gluconic acid sodium salt]",KA-induced neuronal death,"[1]; 10 μM KA for 24 hrs, co-application of 20 mM NaGcA",abolished; also recorded: neuron protection function
same,"neuron survival rate, NaGcA alone",[1]; 20 mM NaGcA alone,no side effect; also recorded: without any side effect
same,Cl− currents,[2]; recorded at +90 mV,499±89 pA
same,Cl− currents (inhibition),[2]; sodium salt,significantly decreased; also recorded: significant NaGcA inhibition
same,reduction of average power of epileptic activity,"[3]; 0 Mg2+ aCSF, 20 mM NaGcA, P6-8",59.6±4.3%
same,reduction of average power of epileptic activity,"[3]; 0 Mg2+ aCSF, 20 mM NaGcA, P10-12",62.1±3.8%
same,reduction of average power of epileptic activity,"[3]; 0 Mg2+ aCSF, 20 mM NaGcA, P21-33",23.8±4.1%
same,burst latency,[3]; [6],significantly prolonged
same,total burst activity,[3]; [6],significantly reduced
same,epileptic activity induced by 4-AP,"[3]; 50 μM 4-AP, neonatal slices, 20 mM NaGcA, sodium salt",significantly reduced; also recorded: attenuated
same,"epileptiform activity induced by 0 Mg2+ aCSF, neonatal slices","[3]; 20 mM NaGcA, P6-12, sodium salt",strong inhibition; also recorded: strong efficacy; also recorded: dramatically reduced; also recorded: potent anti-epileptic effect; also recorded: inhibited
same,"epileptiform activity induced by 0 Mg2+ aCSF, older animals","[3]; 20 mM NaGcA, P21-33 (P26), sodium salt",modest effect; also recorded: much less inhibition; also recorded: much smaller; also recorded: moderate anti-epileptic discharges effect; also recorded: less effect
same,reduction of the power amplitude,"[3]; 4-AP (50 μM) model, neonatal slices, 20 mM NaGcA",70.2±5.3%
same,reduction of the power amplitude,"[3]; high K+ (8.5 mM) model, neonatal slices, 20 mM NaGcA",70.8±4.9%
same,epileptic burst activity in high K+ model,"[3]; high K+ aCSF (8.5 mM), neonatal slices, 20 mM NaGcA, sodium salt",remarkably suppressed; also recorded: blocked; also recorded: dramatically reduced
same,epileptic seizure (burst) activity in EEG,"[4]; P10-12, KA 2 mg/kg i.p., drug i.p. 10 min after KA: NaGcA 2 g/kg, phenobarbital 25 mg/kg, bumetanide 2 mg/kg, sodium salt",significantly inhibited; also recorded: potently inhibited; also recorded: essentially abolished; also recorded: no robust burst discharges
same,"average power of epileptic activity induced by KA, lowering","[4]; P10-12, NaGcA 2 g/kg i.p. vs saline, 1 min time window",70%
same,reduction of relative EEG power,"[4]; last 30 min of a 2-hr recording period after KA injection, neonatal",72.3%
same,spike activity elicited by isoguvacine after 0 Mg2+ treatment,[5],essentially abolished

# — patent publication US11666640B2, “Glucose oxidase compositions as a neonate anticonvulsant” (PENN STATE RESEARCH FOUNDATION, priority 2018, dated 2023)
